Measured values from patent US7939074B2, “Combination of an anti-EP-CAM antibody with a chemotherapeutic agent” (GlaxoSmithKline LLC, priority 1999, dated 2011).
Counter-ions that a name gives are not always drawn.

Key:
[1] = test system: Human colon adenocarcinoma (HT-29) tumours; assay: Localization of 177Lu-labelled humanised 323/A3 IgG4cys-TMT to HT-29 xenografts after drug pre-treatment; format: in vivo, female CD-1 nude mice; conditions: HT-29 xenograft mice; NAVELBINE 28 mg/kg i.v. or 5-FU 20 mg/kg i.p. on days 1 and 5; labelled antibody on day 6
Procedure: Human colon adenocarcinoma (HT-29) tumours were initiated by subcutaneous implantation into female CD-1 nude mice (Charles River). When the tumours reached 200-300 mg, animals were divided into groups of five. NAVELBINE® was injected intravenously at a dosage of 28 mg/kg on days 1 and 5. A control group was dosed with 5-fluorouracil (5-FU) intraperitoneally at 20 mg/kg on days 1 and 5. On day 6, humanised 323/A3 IgG4cys-TMT (a humanized monoclonal antibody chelator conjugate with specificity for the Ep-CAM antigen) was labelled with lutetium-177 and injected intravenously via the lateral tail vein. Each mouse received […]/2.09 μCi lutetium-177/0.2 ml injection. Blood, spleen, liver, lung, kidney, femur and tumour were harvested on days 1, 3 and 5 post-antibody for direct gamma counting (see FIG. 5 for results).

adenocarcinoma cells = assay: Cell cycle analysis (propidium iodide flow cytometry) of drug-exposed adenocarcinoma cell lines; format: cell-based, human; conditions: adenocarcinoma cell line; NVB 30 nM then CDDP 5 μM; TAX 80 nM then CPBDA 100 μM; interferons 100 U/ml; media control 6.3%
Procedure: (§1) Populations of PC-3 prostatic adenocarcinoma cells were evaluated for distribution in G0/G1, S, and G2/M phases of the cell cycle as well as Ep-CAM expression. Cells were gently trypsinized and mechanically detached from the culture flasks and resuspended in calcium and magnesium-free phosphate-buffered saline containing bovine serum albumin and NaN3. Exactly 2×10^5 cells were stained with FITC-323/A3 murine IgG antibody or FITC-murine IgG (control). Cells were fixed with cold paraformaldehyde, then permeabilized for DNA staining with Tween-20. Cellular DNA was stained with propidium iodide and RNase A. Listmode data were acquired on a FACScan flow cytometer (Becton Dickinson Immunocytometry Systems) equipped with a 488 nm laser using Cell Fit software. Cell cycle analysis was done using SOBR modelling (where possible, otherwise manual estimations were employed) on Cell Fit. Ep-CAM antigen expression as detected by 323/A3 binding was evaluated separately using histogram analysis in WINLIST™ (Verity Software House).
(§2) Subconfluent cells were exposed to NAVELBINE® or TAXOL® for up to 24 hours, then washed and exposed to cisplatin or carboplatin, respectively, overnight. Cells were exposed to 5FU for 24 hours, and for 2-5 days to the interferons. Cells were washed and cultured for another 2-5 days prior to analysis for antigen expression and cell cycle status as described in Example 1. Antigen expression was quantified by comparison of the binding of fluorescein-conjugated 323/A3 to cultured cells with binding to calibrated microbead standards.

[2] = test system: Ep-CAM antigen on adenocarcinoma cells; assay: Quantification of Ep-CAM antigen expression by binding of fluorescein-conjugated 323/A3 versus calibrated microbead standards; format: cell-based, human; conditions: adenocarcinoma cells exposed to drugs, Example 2 / FIG. 2, versus media
Procedure: as §1, §2
The expression of Ep-CAM antigen was quantified on a variety of adenocarcinoma cell lines as well as primary cultures of normal human cells. Cultured subconfluent cells were exposed sequentially to media, or to 30 nM NAVELBINE® followed by 5 μM cisplatin (NVB+CDDP), or to 80 nM TAXOL® followed by 100 μM carboplatin (TAX+CPBDA). Cells were washed with media and cultured for another 2-5 days prior to analysis for antigen expression as described in Examples 1 and 2.

[3] = test system: HT29 adenocarcinoma cells; assay: Binding of PANOREX to drug-treated HT29 cells; format: cell-based, human; conditions: 15 minute incubation with PANOREX after culture with drugs
Procedure: as §2
The binding of PANOREX®, a related murine monoclonal antibody with specificity for the Ep-CAM antigen, was evaluated after a 15 minute incubation with HT29 adenocarcinoma cells which had been cultured with NAVELBINE® plus Cisplatin or with TAXOL® as previously described. A significant increase (34%) in antibody binding was seen on the cells treated with NAVELBINE® plus Cisplatin; 82% of these cells were arrested in S or G2/M cycle phase compared to 21% of the control cells.

[4] = test system: HT29 adenocarcinoma cells; assay: Cell cycle arrest in drug-treated HT29 cells; format: cell-based, human; conditions: HT29 cells cultured with drugs; control cells 21%
Procedure: as §1, with “Cellular DNA was stained with propidium iodide and RNase A. Listmode data were acquired on a FACScan flow cytometer (Becton Dickinson Immunocytometry Systems) equipped with a 488 nm laser using Cell Fit software. Cell cycle analysis was done using SOBR modelling (where possible, otherwise manual estimations were employed) on Cell Fit.” left out
Subconfluent cells were exposed to NAVELBINE® or TAXOL® for up to 24 hours, then washed and exposed to cisplatin or carboplatin, respectively, overnight. […] Antigen expression was quantified by comparison of the binding of fluorescein-conjugated 323/A3 to cultured cells with binding to calibrated microbead standards.
The binding of PANOREX®, a related murine monoclonal antibody with specificity for the Ep-CAM antigen, was evaluated after a 15 minute incubation with HT29 adenocarcinoma cells which had been cultured with NAVELBINE® plus Cisplatin or with TAXOL® as previously described. […]

Row | Compound | antibody targeting to Ep-CAM positive tumours [1] | cells in S and G2/M phases combined (adenocarcinoma cells) [%] | Ep-CAM antigen expression [2] | increase in antibody binding (PANOREX) [3] [%] | cells arrested in S or G2/M cycle phase [4] [%]
1 | CCC1=C[C@@H]2CN(C1)Cc1c([nH]c3ccccc13)[C@@](C(=O)OC)(c1cc3c(cc1OC)N(C)[C@H]1[C@@](O)(C(=O)OC)[C@H](OC(C)=O)[C@]4(CC)C=CCN5CC[C@]31[C@@H]54)C2 (relative stereo) [NAVELBINE®, 3′,4′-didehydro-4′-deoxy-C′-norvincaleukoblastine [R-(R*,R*)-2,3-dihydroxybutanedioate (1:2)(salt)]] | increases antibody targeting |  |  |  | 
2 | O=c1[nH]cc(F)c(=O)[nH]1 [5FU, 5-Fluorouracil] |  | 7.9 | not significantly increased |  | 
3 | CC(=O)O[C@H]1C(=O)[C@@]2(C)[C@H]([C@H](OC(=O)c3ccccc3)[C@]3(O)C[C@H](OC(=O)[C@H](O)[C@@H](NC(=O)c4ccccc4)c4ccccc4)C(C)=C1C3(C)C)[C@]1(OC(C)=O)CO[C@@H]1C[C@@H]2O [TAXOL®, 5β,20 epoxy-1,2α,4,7β,10β,13α-hexahydroxytax-11-en-9-one 4,10-diacetate 2-benzoate 13-ester with (2R,3S)-N-benzoyl-3-phenylisoserine] |  |  |  | 8 | 57
4 | IFN-α |  | 12 | not significantly increased |  | 
5 | IFN-γ: interferon-gamma, used at 100 U/ml |  | 11.5 | not significantly increased |  | 
